# Test results: PubChem BioAssay AID1601
# Results filed as inconclusive are left out. Where a SMILES comes first, the peptide text is derived from it.
# Tested on: mutant SOD1 cell death rescue, 1 uM
# Assay: protection from mutant SOD1-driven cell killing (AID 1601)
row,SMILES,EC50
1,CC(C)=CCC/C(C)=C/CO,1200 nM
2,Cc1cc(C(C)(C)CC(C)(C)C)ccc1OCCOCC[N+](C)(C)Cc1ccccc1,100 nM
3,CC[C@@H](CO)NCCN[C@@H](CC)CO,2900 nM
4,CCCC(CCC)C(=O)O,700 nM
5,CC(C)NCC(O)c1ccc(O)c(O)c1 (centres undefined),1000 nM
6,CC[C@H]1OC(=O)[C@H](C)[C@@H](O[C@H]2C[C@@](C)(OC)[C@@H](O)[C@H](C)O2)[C@H](C)[C@@H](O[C@@H]2O[C@H](C)C[C@H](N(C)C)[C@H]2O)[C@](C)(O)C[C@@H](C)CN(C)[C@H](C)[C@@H](O)[C@]1(C)O,900 nM
7,NCCCCC(N)C(=O)NC(Cc1c[nH]c2ccccc12)C(=O)NC(CCCCN)C(=O)O (stereo not drawn) (H-Lys-Trp-Lys-OH; configuration not given here),8600 nM
8,CC(C)COCC(CN(Cc1ccccc1)c1ccccc1)N1CCCC1 (centres undefined),1000 nM
9,CC(=O)NS(=O)(=O)c1ccc(N)cc1,2100 nM
